For data set [1], the system named is A2780. Description: Antiproliferative activity against human A2780 cells assessed as cell growth inhibition at 25 uM incubated for 72 hrs by MTT assay relative to control. The format is functional. (In general: Tetrazolium assays rely on reduction of a dye to a coloured formazan, in cell work by metabolically active cells.)
Data set [2] has as its system U-87 MG. Description: Antiproliferative activity against human U87 cells assessed as cell growth inhibition at 25 uM incubated for 72 hrs by MTT assay relative to control. The class given is functional, U-87MG ATCC.
Data set [3] deals with DU-145. The data set is described as follows: Antiproliferative activity against human DU-145 cells assessed as cell growth inhibition at 25 uM incubated for 72 hrs by MTT assay relative to control. The format is functional.
For data set [4], the target named is T1, Tubulin (Homo sapiens) (UniProt P68371+Q9H4B7+P0DPH7+P68366+Q13509+Q71U36+P04350+Q3ZCM7+P07437+P68363+Q9BQE3+Q6PEY2+Q13885+Q9BVA1+Q9BUF5). Description: Induction of tubulin (unknown origin) polymerization assessed as microtubule formation by measuring increase in fluorescence at 10 uM by fluorometric analysis. The class given is protein-complex assay.
Data set [5] has as its system MIA PaCa-2. The data set is described as follows: Antiproliferative activity against human MIA PaCa-2 cells assessed as cell growth inhibition at 25 uM incubated for 72 hrs by MTT assay relative to control. The format is functional.
Data set [6] has as its system MCF7. Description: Antiproliferative activity against human MCF7 cells assessed as cell growth inhibition at 25 uM incubated for 72 hrs by MTT assay relative to control. The format is functional.
The nature of data set [7]: Cytotoxicity against human MCF-10A cells assessed as cell growth inhibition at 25 uM incubated for 72 hrs by MTT assay relative to control. The class given is toxicity, cell-based.
Data set [8] is described as follows: Antiproliferative activity against human SJG2 cells assessed as cell growth inhibition at 25 uM incubated for 72 hrs by MTT assay relative to control. The class given is functional. As to conditions: SJ-G2.
For data set [9], the system named is BE(2)-C. The data set is described as follows: Antiproliferative activity against human BE2C cells assessed as cell growth inhibition at 25 uM incubated for 72 hrs by MTT assay relative to control. The class given is functional.
Data set [10] has as its system HT-29. Description: Antiproliferative activity against human HT-29 cells assessed as cell growth inhibition at 25 uM incubated for 72 hrs by MTT assay relative to control. The format is functional.
In data set [11] the test system is NCI-H460. Description: Antiproliferative activity against human NCI-H460 cells assessed as cell growth inhibition at 25 uM incubated for 72 hrs by MTT assay relative to control. The class given is functional.
Data set [12] concerns A-431. The data set is described as follows: Antiproliferative activity against human A-431 cells assessed as cell growth inhibition at 25 uM incubated for 72 hrs by MTT assay relative to control. The format is functional.
In data set [13] the test system is DU-145. The data set is described as follows: Antiproliferative activity against human DU-145 cells assessed as cell growth inhibition incubated for 72 hrs by MTT assay. The format is functional.
Data set [14] deals with NCI-H460. The data set is described as follows: Antiproliferative activity against human NCI-H460 cells assessed as cell growth inhibition incubated for 72 hrs by MTT assay. The class given is functional.
Data set [15] has as its system MIA PaCa-2. Description: Antiproliferative activity against human MIA PaCa-2 cells assessed as cell growth inhibition incubated for 72 hrs by MTT assay. The format is functional.
Data set [16] concerns MCF7. Description: Antiproliferative activity against human MCF7 cells assessed as cell growth inhibition incubated for 72 hrs by MTT assay. The class given is functional.
For data set [17], the system named is BE(2)-C. The data set is described as follows: Antiproliferative activity against human BE2C cells assessed as cell growth inhibition incubated for 72 hrs by MTT assay. The format is functional.
Data set [18] is described as follows: Antiproliferative activity against human SJG2 cells assessed as cell growth inhibition incubated for 72 hrs by MTT assay. The format is functional. Conditions: SJ-G2.
Data set [19] has as its system U-87 MG. The data set is described as follows: Antiproliferative activity against human U87 cells assessed as cell growth inhibition incubated for 72 hrs by MTT assay. The class given is functional, U-87MG ATCC.
In data set [20] the test system is HT-29. The data set is described as follows: Antiproliferative activity against human HT-29 cells assessed as cell growth inhibition incubated for 72 hrs by MTT assay. The format is functional.
Data set [21] is described as follows: Cytotoxicity against human MCF-10A cells assessed as cell growth inhibition incubated for 72 hrs by MTT assay. The format is toxicity, cell-based.
The test system of data set [22] is A2780. Description: Antiproliferative activity against human A2780 cells assessed as cell growth inhibition incubated for 72 hrs by MTT assay. The class given is functional.
For data set [23], the system named is A-431. The data set is described as follows: Antiproliferative activity against human A-431 cells assessed as cell growth inhibition incubated for 72 hrs by MTT assay. The format is functional.
The target in data set [24] is T1, Tubulin (Homo sapiens). The data set is described as follows: Inhibition of tubulin (unknown origin) polymerization assessed as reduction microtubule formation at 10 uM by fluorometric analysis. The class given is protein-complex assay.

Calls of active or inactive are those of the source. The calls are words filed in the database; no cut-off is given here. Bounds are passed on as bounds.

With `O=C1NC(/C=C/c2ccccc2[N+](=O)[O-])Nc2ccccc21` (stereo unspecified), the inhibition (commonly the change of the read-out against control, counted positive when it falls) at 25 µM in the data set on A2780 [1] stood at 69%; with U-87 MG [2], 24%; in the data set with DU-145 [3], 66%; with MIA PaCa-2 [5], 32%; with MCF7 [6], 55%; in data set [8], 81%. Further, the inhibition at 25 µM with BE(2)-C [9] is 53%; in the data set with HT-29 [10] it was 37%; in the data set with NCI-H460 [11], 35%; with A-431 [12], 40%. The result at Tubulin (Homo sapiens) [4] was inactive. In data set [7], the inhibition at 72 h, 25 µM worked out at 13%.
Consider `O=c1[nH]c(/C=C/c2ccccc2)nc2ccccc12`, for which the inhibition at 25 µM in the data set on A2780 [1] is > 100%; in the data set with U-87 MG [2], > 100%; in the data set on DU-145 [3], > 100%; in the data set on MIA PaCa-2 [5] it was 96%; with MCF7 [6] it was > 100%; in [8], > 100%. Besides, the inhibition at 25 µM in the data set with BE(2)-C [9], in the data set on HT-29 [10], with NCI-H460 [11] and with A-431 [12] was > 100% each time. Further, the GI50 (commonly the concentration that inhibits growth by half) in the data set on DU-145 [13] worked out at 2400 nM; with NCI-H460 [14], 2500 nM; in the data set on MIA PaCa-2 [15] it was 2300 nM; in the data set on MCF7 [16], 1300 nM; with BE(2)-C [17] it was 500 nM; in data set [18], 2200 nM. The GI50 was determined as 2700 nM in the data set on U-87 MG [19], 400 nM in the data set with HT-29 [20], 450 nM in the data set on A2780 [22] and 640 nM with A-431 [23]. Also, the outcome on Tubulin (Homo sapiens) [4] was inactive. Further, in data set [7], the inhibition at 72 h, 25 µM was > 100%. The 50% growth inhibitory concentration (GI50) at 72 h in [21] came to 2300 nM.
Consider `COc1ccc(/C=C/c2nc3ccccc3c(=O)[nH]2)cc1`, for which the inhibition at 25 µM was 66% with A2780 [1]; 24% in the data set on U-87 MG [2]; 41% in the data set with DU-145 [3]; 67% in the data set on MIA PaCa-2 [5]; > 100% in the data set with MCF7 [6]; 89% in data set [8]. The inhibition at 25 µM with BE(2)-C [9] worked out at 66%; in the data set with HT-29 [10], 78%; in the data set on NCI-H460 [11], 60%; with A-431 [12], 45%. Besides, the inhibition result on Tubulin (Homo sapiens) [24] was “Active”. Further, the GI50 in the data set on DU-145 [13] came to 45000 nM; in the data set on NCI-H460 [14] it was 11000 nM; in the data set on MIA PaCa-2 [15], 5500 nM; with MCF7 [16], 2600 nM; in the data set with BE(2)-C [17], 4400 nM; in [18], 6400 nM. Besides, the GI50 in the data set with U-87 MG [19] was > 50000 nM; with HT-29 [20] it was 3800 nM; with A2780 [22], 12000 nM; with A-431 [23] it was 33000 nM. For the same compound, the inhibition at 72 h, 25 µM in [7] is 60%. Besides, in [21], the concentration for 50% growth inhibition (GI50) at 72 h was 11000 nM.
For the compound `O=C1NC(CCc2ccccc2)Nc2ccccc21` (stereo unspecified), the inhibition at 25 µM was 29% in the data set on A2780 [1]; < 10% in the data set on U-87 MG [2]; 27% in the data set with DU-145 [3]; 27% with MIA PaCa-2 [5]; 38% in the data set on MCF7 [6]; 16% in [8]. The inhibition at 25 µM was 19% in the data set on BE(2)-C [9], 29% with HT-29 [10], < 10% in the data set on NCI-H460 [11] and 14% in the data set on A-431 [12]. In addition, the GI50 in the data set on DU-145 [13] worked out at 17000 nM; with NCI-H460 [14], 12000 nM; in the data set on MIA PaCa-2 [15] it was 13000 nM; with MCF7 [16], 14000 nM; in the data set on BE(2)-C [17], 3600 nM; in data set [18] it was 16000 nM. In addition, the GI50 is 19000 nM with U-87 MG [19], 3500 nM in the data set on HT-29 [20], 3900 nM in the data set on A2780 [22] and 3600 nM in the data set with A-431 [23]. In addition, the outcome at Tubulin (Homo sapiens) [4] (filed as activator) was Active. In data set [7], the inhibition at 72 h, 25 µM stood at 23%. Also, in data set [21], the GI50 at 72 h is 14000 nM.
For the compound `Cc1ccc2[nH]cc(-c3nc4ccccc4c(=O)[nH]3)c2c1`, the 50% growth inhibitory concentration (GI50) was > 50000 nM in the data set on DU-145 [13]; 3700 nM with NCI-H460 [14]; 1000 nM in the data set on MIA PaCa-2 [15]; 280 nM with MCF7 [16]; 630 nM in the data set on BE(2)-C [17]; > 50000 nM in [18]. The GI50 with U-87 MG [19] was found to be 16000 nM; in the data set with HT-29 [20], 390 nM; in the data set on A2780 [22] it was 1300 nM; with A-431 [23] it was 570 nM. Also, at Tubulin (Homo sapiens) [4] (filed as activator), the result was Active. The GI50 at 72 h in [21] is 1200 nM.
For the compound `COc1cccc(/C=C/c2nc3ccccc3c(=O)[nH]2)c1`, the inhibition at 25 µM was > 100% with A2780 [1]; 75% in the data set with U-87 MG [2]; 78% in the data set with DU-145 [3]; 93% in the data set with MIA PaCa-2 [5]; > 100% with MCF7 [6]; 100% in data set [8]. The inhibition at 25 µM in the data set on BE(2)-C [9] is 99%; with HT-29 [10] it was > 100%; in the data set with NCI-H460 [11] it was > 100%; in the data set on A-431 [12] it was > 100%. Further, the GI50 worked out at 3900 nM in the data set on DU-145 [13]; 2200 nM with NCI-H460 [14]; 2900 nM with MIA PaCa-2 [15]; 470 nM with MCF7 [16]; 2100 nM in the data set with BE(2)-C [17]; 2800 nM in [18]. For the same compound, the 50% growth inhibitory concentration (GI50) was 10000 nM in the data set with U-87 MG [19], 900 nM in the data set with HT-29 [20], 2600 nM with A2780 [22] and 2600 nM with A-431 [23]. Moreover, on Tubulin (Homo sapiens) [4], the result was inactive. Moreover, in [7], the inhibition at 72 h, 25 µM was determined as 95%. Moreover, the GI50 at 72 h in data set [21] was found to be 2200 nM.

Values taken from ChEMBL document CHEMBL5532698, “2,3-Dihydroquinazolin-4(1H)-ones and quinazolin-4(3H)-ones as broad-spectrum cytotoxic agents and their impact on tubulin polymerisation” (RSC Med Chem, 2024).
